Source: PubChem BioAssay (NCI)
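Results reflect a 48-hour exposure of cells in 96-well plates to compound at five concentrations. Here, GI50 denotes the concentration required for 50% inhibition of growth. TGI marks complete inhibition of growth.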

Assays:
Assay in all cases: growth of human tumour cells (NCI), 48 h
SNB-75 CNS = test system: SNB-75 CNS
HL-60(TB) leukemia = test system: HL-60(TB) leukemia
UACC-257 melanoma = test system: UACC-257 melanoma
HOP-92 NSCLC = test system: HOP-92 NSCLC
HCT-116 colon = test system: HCT-116 colon
SK-OV-3 ovarian = test system: SK-OV-3 ovarian
ACHN renal = test system: ACHN renal
NCI-H460 lung = test system: NCI-H460 lung
SK-MEL-5 melanoma = test system: SK-MEL-5 melanoma
HCT-15 colon = test system: HCT-15 colon
LOX IMVI melanoma = test system: LOX IMVI melanoma
KM12 colon = test system: KM12 colon
A549 NSCLC = test system: A549 NSCLC
U251 CNS = test system: U251 CNS
MOLT-4 leukemia = test system: MOLT-4 leukemia
NCI/ADR-RES ovarian = test system: NCI/ADR-RES ovarian
DU-145 prostate = test system: DU-145 prostate
OVCAR-5 ovarian = test system: OVCAR-5 ovarian
HCC-2998 colon = test system: HCC-2998 colon
UO-31 renal = test system: UO-31 renal
NCI-H226 lung = test system: NCI-H226 lung
SF-295 CNS = test system: SF-295 CNS
T-47D breast = test system: T-47D breast
OVCAR-3 ovarian = test system: OVCAR-3 ovarian
CAKI-1 renal = test system: CAKI-1 renal
786-0 renal = test system: 786-0 renal
CCRF-CEM leukemia = test system: CCRF-CEM leukemia
SF-539 CNS = test system: SF-539 CNS
MCF7 breast = test system: MCF7 breast
SF-268 CNS = test system: SF-268 CNS
SR leukemia = test system: SR leukemia
NCI-H23 lung = test system: NCI-H23 lung
SNB-19 CNS = test system: SNB-19 CNS
TK-10 renal = test system: TK-10 renal
NCI-H522 lung = test system: NCI-H522 lung
SW-620 colon = test system: SW-620 colon
OVCAR-4 ovarian = test system: OVCAR-4 ovarian
OVCAR-8 ovarian = test system: OVCAR-8 ovarian
K-562 leukemia = test system: K-562 leukemia
COLO 205 colon = test system: COLO 205 colon
HS 578T breast = test system: HS 578T breast
MDA-MB-231 breast = test system: MDA-MB-231 breast
HT29 colon = test system: HT29 colon
MDA-MB-435 = test system: MDA-MB-435
MALME-3M melanoma = test system: MALME-3M melanoma
RXF 393 renal = test system: RXF 393 renal
BT-549 breast = test system: BT-549 breast
RPMI-8226 leukemia = test system: RPMI-8226 leukemia
PC-3 prostate = test system: PC-3 prostate
HOP-62 NSCLC = test system: HOP-62 NSCLC
UACC-62 melanoma = test system: UACC-62 melanoma
SK-MEL-28 melanoma = test system: SK-MEL-28 melanoma
SN12C renal = test system: SN12C renal
SK-MEL-2 melanoma = test system: SK-MEL-2 melanoma
IGROV1 ovarian = test system: IGROV1 ovarian

## CC(=O)OCCCCCn1cnc(C(N)=O)c1N
SNB-75 CNS
  GI50: 87.1 µM

## CCOc1ccc(N2C(N)=NC(N)=NC2(C)C)cc1
HL-60(TB) leukemia
  GI50: 72 µM
  TGI: > 100 µM
UACC-257 melanoma
  GI50: > 100 µM
  TGI: > 100 µM
HOP-92 NSCLC
  GI50: > 100 µM
  TGI: > 100 µM
HCT-116 colon
  GI50: 34.6 µM
  TGI: > 100 µM
SK-OV-3 ovarian
  GI50: > 100 µM
  TGI: > 100 µM
ACHN renal
  GI50: > 100 µM
  TGI: > 100 µM
NCI-H460 lung
  GI50: 39.8 µM
  TGI: > 100 µM
SK-MEL-5 melanoma
  GI50: 40.8 µM
  TGI: > 100 µM
HCT-15 colon
  GI50: > 100 µM
  TGI: > 100 µM
LOX IMVI melanoma
  GI50: 45.8 µM
  TGI: > 100 µM
KM12 colon
  GI50: 74 µM
  TGI: > 100 µM
A549 NSCLC
  GI50: 50.1 µM
  TGI: > 100 µM
U251 CNS
  GI50: 36.6 µM
  TGI: > 100 µM
MOLT-4 leukemia
  GI50: 65.6 µM
  TGI: > 100 µM
NCI/ADR-RES ovarian
  GI50: > 100 µM
  TGI: > 100 µM
DU-145 prostate
  GI50: 71.9 µM
  TGI: > 100 µM
OVCAR-5 ovarian
  GI50: 39.7 µM
  TGI: > 100 µM
HCC-2998 colon
  GI50: > 100 µM
  TGI: > 100 µM
UO-31 renal
  GI50: > 100 µM
  TGI: > 100 µM
NCI-H226 lung
  GI50: > 100 µM
  TGI: > 100 µM
SF-295 CNS
  GI50: 48.1 µM
  TGI: > 100 µM
T-47D breast
  GI50: > 100 µM
  TGI: > 100 µM
OVCAR-3 ovarian
  GI50: > 100 µM
  TGI: > 100 µM
CAKI-1 renal
  GI50: > 100 µM
  TGI: > 100 µM
786-0 renal
  GI50: 44.9 µM
  TGI: > 100 µM
CCRF-CEM leukemia
  GI50: > 100 µM
  TGI: > 100 µM
SF-539 CNS
  GI50: 28.6 µM
  TGI: > 100 µM
MCF7 breast
  GI50: > 100 µM
  TGI: > 100 µM
SF-268 CNS
  GI50: 49.3 µM
  TGI: > 100 µM
SR leukemia
  GI50: 74.6 µM
  TGI: > 100 µM
NCI-H23 lung
  GI50: 58.8 µM
  TGI: > 100 µM
SNB-19 CNS
  GI50: 55.8 µM
  TGI: > 100 µM
TK-10 renal
  GI50: > 100 µM
  TGI: > 100 µM
NCI-H522 lung
  GI50: > 100 µM
  TGI: > 100 µM
SW-620 colon
  GI50: 37.6 µM
  TGI: > 100 µM
OVCAR-4 ovarian
  GI50: > 100 µM
  TGI: > 100 µM
OVCAR-8 ovarian
  GI50: 62.3 µM
  TGI: > 100 µM
K-562 leukemia
  GI50: 36 µM
  TGI: > 100 µM
COLO 205 colon
  GI50: 69.9 µM
  TGI: > 100 µM
HS 578T breast
  GI50: > 100 µM
  TGI: > 100 µM
MDA-MB-231 breast
  GI50: > 100 µM
  TGI: > 100 µM
HT29 colon
  GI50: 58.1 µM
  TGI: > 100 µM
MDA-MB-435
  GI50: 38.8 µM
  TGI: > 100 µM
MALME-3M melanoma
  GI50: 56.4 µM
  TGI: > 100 µM
RXF 393 renal
  GI50: > 100 µM
  TGI: > 100 µM
BT-549 breast
  GI50: 84.3 µM
  TGI: > 100 µM
RPMI-8226 leukemia
  GI50: > 100 µM
  TGI: > 100 µM
PC-3 prostate
  GI50: 45.7 µM
  TGI: > 100 µM
HOP-62 NSCLC
  GI50: 95 µM
  TGI: > 100 µM
SNB-75 CNS
  GI50: 60.5 µM
  TGI: > 100 µM
UACC-62 melanoma
  GI50: 43.8 µM
  TGI: > 100 µM
SK-MEL-28 melanoma
  GI50: 53.7 µM
  TGI: > 100 µM
SN12C renal
  GI50: 52.7 µM
  TGI: > 100 µM
SK-MEL-2 melanoma
  GI50: > 100 µM
  TGI: > 100 µM
IGROV1 ovarian
  GI50: 46.5 µM
  TGI: > 100 µM
